“Also recorded” adds a separate entry of the source.

Series [1] deals with blood vessel (rat aorta) with intact endothelium. The series is described as follows: β-amyloid induced contraction (vasoactivity) of blood vessel rings in tissue bath. Type of series: cell-based. On the procedure:
(§1) Freshly excised rat and porcine blood vessels were placed in Kreb's bicarbonate buffer equilibrated with 5% CO2 in O2. The buffer composition consisted of 118.2 mM NaCl, 4.7 mM KCl, 1.2 mM MgSO4, 2.5 mM CaCl2, 1.2 mM NaH2 PO4, 23 mM NaHCO3 and 11.2 mM glucose. After cleaning the vessels free of fat and other adhering tissues, the vessels were cut into ring segments of approximately 3mm in length. Care was taken not to damage the intimal surface.
The endothelium was removed from some preparations by rubbing the inside of the lumen with a metal spatula for six to ten seconds and subsequent rinsing with buffer. The removal of endothelium was confirmed by testing for relaxation to acetylcholine [Furchgott and Zawadzki, 1980].
(§2) The blood vessel preparations were mounted on stainless steel hooks attached to a force-displacement transducer and equilibrated under the optimum tension of 1.3 g for a period of sixty minutes in a tissue bath (10 ml) containing oxygenated (5% CO2 in O2) Kreb's buffer at 37° C. The buffer was changed every fifteen minutes. After equilibration for sixty minutes the viability of the blood vessel with intact endothelium was established by constricting the blood vessel using phenylephrine ([…]). This dose of phenylephrine elicited 80% of the maximum response. […] The vessel preparations were washed for fifteen minutes before various manipulations as described below.
Referring to FIG. 10, the arrow indicates the addition of 10^-6 M β-amyloid. The control tissue received no β-amyloid. SOD (150 units/ml) was added thirty seconds prior to the addition of β-amyloid. The maximum contraction induced by β-amyloid was 1.14±0.13 (g) and in presence of SOD the contraction was reduced to 0.04±0.02 (g). Values represent the mean ±SEM of five separate experiments.

The next series has as its system blood vessel (rat aorta). The series is described as follows: Acetylcholine induced relaxation of phenylephrine-preconstricted aorta after β-amyloid pretreatment. In kind it is cell-based. On the procedure:
as §1, §2
As shown in FIG. 11a the aorta was preconstricted with 10^-7 M PE and relaxed with increasing doses of acetylcholine as shown by the arrows. (1=10^-9 M, 2=10^-8 M, 3=5×10^-8 M, 4=10^-7 M, 5=5×10^-7 M, 6=10^-6 M, 7=10^-5 M, 8=5×10^-5 M, the curve denoted by (C) is the control curve and +Aβ indicates the curve for β-amyloid treated aorta.)
FIG. 11b illustrates the relaxation by acetylcholine under control conditions and following fifteen minute incubation with 10^-6 M β-amyloid protein. The acetylcholine relaxation curve is shifted to the right but maintains its sigmoidal form indicating attenuation of acetylcholine induced relaxation. Values represent the mean ±SEM of 5 or more experiments. […] At higher doses of acetylcholine greater percentage changes in relaxation occur preserving the sigmoidal response.

For the next series, the system named is aortic rings. The series is described as follows: β-amyloid augmentation of phenylephrine (PE) induced contraction of aortic rings. In kind it is cell-based, rat. The note with it: for PE induced contraction, +β-Amyloid P1 (±SEM), percent of control value: 10^-6 M β-amyloid fifteen minutes, control maximum = 100%; for PE induced contraction, +β-Amyloid P2 (±SEM), percent of control value: repeated after rinsing, no further β-amyloid. On the procedure: as §1, §2
The procedure was then repeated following incubation of the tissue with 10^-6 M β-amyloid for fifteen minutes (P1). The tissue was then rinsed and contractions repeated twice following fifteen minute incubation (P2 & P3) without further addition of β-amyloid. Arrows are shown for points of addition for P3.
Following a fifteen minute incubation, the preparations were contracted with 10^-7 M phenylephrine (PE) as described earlier. Control contractions with PE alone were carried out in presence of the various test compounds. Values represent the mean ±SEM of four or more experiments. The heat-inactivated SOD was prepared by placing it in boiling water for thirty minutes followed by cooling prior to use. The hydrogen peroxide-inactivated SOD was prepared by exposing SOD to 10 mM H2 O2 for thirty minutes at pH 8.5 and subsequent separation using Microcon filtration system. The amyloid induced PE contraction was blocked by active SOD. Neither albumin or inactivated SOD had any effect on the amyloid activity.
The effect of preincubation of blood vessel with 10^-6 M β-amyloidon contraction induced by phenylephrine (2,4,8, & 16×10^-8 M is shown in Table 1). The maximum contraction in the absence of β-amyloid is taken as 100% and the values obtained following exposure to β-amyloid are expressed as percent of control value. After washing out phenylephrine and acetylcholine of the control contraction, β-amyloid augmented the phenylephrine induced contractions (P1). This effect was blocked by SOD. Washing out the phenylephrine and acetylcholine of the post peptide contraction and repeating the contractions caused further enhancement (P2). Values represent the mean ±SEM of nine or more experiments.
The tissue was then incubated for fifteen minutes with β-amyloid (5×10^-7 M) with or without the drug, followed by contractions with PE. The concentrations compounds used were: L-NMMA, an inhibitor of NO synthase (10^-4 M); indomethacin, an inhibitor of the cyclooxygenase pathway (10^-5 M); SQ 29548, a thromboxane A2 receptor antagonist (10^-5 M); and catalase (1000 units/ml). Values are represented as percentage of the maximal contraction obtained with β-amyloid and PE alone and standardized to remove the intrinsic effects (if any) of each drug on PE contraction alone. The results represent the mean ±SEM of five or more experiments.

Series [2] relates to endothelial cells in aortic rings. The series is described as follows: Electron microscopy of the endothelial cell layer in aortic rings. In kind it is cell-based, rat. On the procedure:
As shown in FIGS. 14A-F, […], or in presence of β-amyloid (10^-6 M), or SOD (150 units/ml) and β-amyloid.The tissue samples were kept in glutaraldehyde solution at 4° C. until processed and then rinsed with cacodylate buffer. The tissues were postfixed with 1% buffered osmium tetroxide, dehydrated with graded ethanol solutions, and embedded in a mixture of eponaraldite. Ultrathin sections were stained with uranyl acetate and lead citrate and viewed on model 7000 Hitachi transmission electron microscope. The inset bar indicates one micron. The experiment was repeated three or more times with blood vessels from different animals.

For series [3], the system named is endothelial cell layer in rat coronary artery. The series is described as follows: Electron microscopy of the endothelial cell layer in rat coronary artery. In kind it is cell-based. The note with it: β-amyloid thirty minutes at 10^-6 M. The procedure: The physiological effects of β-amyloid treatment on the coronary artery with and without pretreatment with SOD is shown in FIGS. 7A-C. FIGS. 7A-C are electron micrographs showing the endothelial cell layer in rat coronary artery. […] The tissue samples were kept in glutaraldehyde solution at 4° C. until processed and then rinsed with cacodylate buffer. The tissues were post-fixed with 1% buffered osmium tetroxide, dehydrated with grated ethanol solutions, and embedded in a mixture of eponaraldite. Ultra thin sections were stained with uranyl acetate and lead citrate and viewed on a model 7,000 Hitachi transmission electron microscope. The inset bar indicates two microns. The experiment was repeated three or more times with blood vessels from different animals. FIG. 7A is a control coronary artery and depicts normal endothelial cells closely adhering to the intimal elastic lamina lining of the lumen. […] FIG. 7C depicts a rat coronary artery pretreated with SOD (150 units/ml, for thirty seconds prior to the addition of β-amyloid).

Series [4] relates to porcine coronary arteries. The series is described as follows: Amyloid peptide induced contraction of porcine coronary arteries. In kind it is cell-based. The note with it: increasing concentrations of amyloid peptide. From the text: Freshly isolated porcine coronary arteries were studied by the methods described above for rat aorta.
For another series, the system named is Porcine aorta. The series is described as follows: U46619 constriction and bradykinin relaxation of porcine vessel after amyloid peptide. Type of series: cell-based. The note with it: single dose of amyloid. The text has this:
The effect of pre-treatment with a single dose of amyloid protein on relaxation induced by increasing concentrations of the vasodilator bradykinin is shown in FIG. 23. […] was preconstricted with a single dose of the vasoconstrictor U46619.

Series [5] concerns bovine mid cerebral arteries. The series is described as follows: Effect of β-amyloid on bovine cerebral artery (U46619 contraction, bradykinin vasodilation). In kind it is cell-based. The note with it: 1 μM β-amyloid for 15 minutes. On the procedure:
Freshly dissected bovine mid cerebral arteries were cut into 3 mm rings and studied in tissue chamber as described earlier. Contraction of the blood vessel to the vasoconstrictor U46619 was studied before and after treatment with 1 μM β-amyloid for 15 minutes. […] (See FIG. 24).

For the substance β-amyloid, in series [1], the “duration of the vasoactivity (contractions and relaxations)” value is “fifteen to twenty minutes”. The “time until vasoactive effect is evident” value in series [1] is recorded as “within thirty seconds; also recorded: less than one minute; also recorded: less than five minutes”. Moreover, the “initial detectable change: minor relaxation” value in series [1] (after addition of β-amyloid) was less than 0.1 g. Besides, the “effect of β-amyloid on basal tension” value in series [1] (increasing concentrations of β-amyloid) was “constricted the blood vessel in a concentration-dependent manner”. In addition, the “dependence of the constricting effect on endothelium” value in series [1] (vessel with vs without endothelium) was “only occurred in the presence of endothelium”. In the series with blood vessel (rat aorta) (10^-6 M β-amyloid, fifteen minute incubation, 10^-7 M phenylephrine, all points past 10^-8 M acetylcholine), the “cumulative percentage relaxation by acetylcholine after β-amyloid” value is given as “significantly lowered”. Moreover, the “effect of β-amyloid pretreatment on acetylcholine induced relaxation” value in the series on blood vessel (rat aorta) (cumulative small doses of acetylcholine (FIG. 4)) is “significantly reduced relaxation induced by the same doses of acetylcholine”. In the series with blood vessel (rat aorta) (washout after β-amyloid exposure), the “effect of washing the tissue after β-amyloid on acetylcholine induced relaxation” value is “did not restore the acetylcholine-induced relaxation to control levels”. In addition, the “effect of β-amyloid pretreatment on phenylephrine constriction” value in the series on aortic rings (FIG. 4) was “enhanced constriction”. In addition, the “PE induced contraction, +β-Amyloid P1 (±SEM), percent of control value” in the series on aortic rings (PE 2×10^-8 M) is on record as 13.3 (5.9) %; in the series on aortic rings (PE 4×10^-8 M) it was 75 (6.0) %; with aortic rings (PE 8×10^-8 M) it was 105 (15.0) %; in the series on aortic rings (PE 16×10^-8 M), 128 (11.7) %. For the same substance, the “PE induced contraction, +β-Amyloid P2 (±SEM), percent of control value” with aortic rings (PE 2×10^-8 M) is reported as 20 (5.0) %; in the series on aortic rings (PE 4×10^-8 M) it was 99 (15.0) %; in the series on aortic rings (PE 8×10^-8 M), 133 (20.0) %; with aortic rings (PE 16×10^-8 M), 141 (17.6) %. Also, the “β-amyloid concentration required to induce the morphological changes” value in series [2] (incubation periods of fifteen minutes) is reported as ≥ 5×10^-7 M. For the same substance, the “morphological effect on endothelial cells” value in series [2] (β-amyloid 10^-6 M, 37° C., thirty minutes) is “induced significant damage to the endothelial cells”. The “morphology of endothelial layer after β-amyloid” value in series [3] is “Derangement of the endothelial layer, condensed nucleus, separation from the intimal elastic lamina, and areas of denuded internal elastic lamina”. For the same substance, in series [4], the “contraction of porcine coronary artery samples” value is on record as “dose dependent contraction”. Moreover, the “effect on vasodilation by bradykinin” value with Porcine aorta (increasing concentrations of bradykinin) is “reduced the vasodilation caused by the bradykinin”. In the series on Porcine aorta (preconstricted with U46619), the effect on vasoconstriction result was “significant increase in vasoconstriction”. Also, in series [5], the “contraction induced by the vasoconstrictor U46619 after β-amyloid” value is “significantly increased”.

Source of the values: US6140309A, “Vasoactive effects and free radical generation by β-amyloid peptides” (University of South Florida, priority 1996, dated 2000).
